Test results published in PubChem BioAssay (NCI).
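Interpolation was linear, between the two tested concentrations surrounding the appropriate level; five concentrations were tested over 48 hours in 96-well plates. GI50 is the concentration that inhibits growth by half. Definition used: TGI = concentration required for complete inhibition of growth.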

What was measured:
Assay in all cases: NCI anticancer screen, dose series, 48 h
MCF7 breast = test system: MCF7 breast
RXF 393 renal = test system: RXF 393 renal
A549 NSCLC = test system: A549 NSCLC
SK-MEL-5 melanoma = test system: SK-MEL-5 melanoma
NCI-H23 lung = test system: NCI-H23 lung
EKVX NSCLC = test system: EKVX NSCLC
SF-539 CNS = test system: SF-539 CNS
NCI-H460 lung = test system: NCI-H460 lung
UO-31 renal = test system: UO-31 renal
HS 578T breast = test system: HS 578T breast
SF-268 CNS = test system: SF-268 CNS
HOP-92 NSCLC = test system: HOP-92 NSCLC
SK-OV-3 ovarian = test system: SK-OV-3 ovarian
SF-295 CNS = test system: SF-295 CNS
MDA-MB-435 = test system: MDA-MB-435
HOP-62 NSCLC = test system: HOP-62 NSCLC
OVCAR-5 ovarian = test system: OVCAR-5 ovarian
ACHN renal = test system: ACHN renal
DU-145 prostate = test system: DU-145 prostate
CAKI-1 renal = test system: CAKI-1 renal
HCT-116 colon = test system: HCT-116 colon
BT-549 breast = test system: BT-549 breast
T-47D breast = test system: T-47D breast
UACC-257 melanoma = test system: UACC-257 melanoma
SNB-19 CNS = test system: SNB-19 CNS
U251 CNS = test system: U251 CNS
M14 melanoma = test system: M14 melanoma
SR leukemia = test system: SR leukemia
OVCAR-8 ovarian = test system: OVCAR-8 ovarian
SNB-75 CNS = test system: SNB-75 CNS
UACC-62 melanoma = test system: UACC-62 melanoma
HCT-15 colon = test system: HCT-15 colon
HL-60(TB) leukemia = test system: HL-60(TB) leukemia
NCI-H226 lung = test system: NCI-H226 lung
COLO 205 colon = test system: COLO 205 colon
RPMI-8226 leukemia = test system: RPMI-8226 leukemia
A498 renal = test system: A498 renal
SN12C renal = test system: SN12C renal
HT29 colon = test system: HT29 colon
LOX IMVI melanoma = test system: LOX IMVI melanoma
NCI/ADR-RES ovarian = test system: NCI/ADR-RES ovarian
KM12 colon = test system: KM12 colon
786-0 renal = test system: 786-0 renal
CCRF-CEM leukemia = test system: CCRF-CEM leukemia
NCI-H522 lung = test system: NCI-H522 lung
MDA-MB-231 breast = test system: MDA-MB-231 breast
SK-MEL-28 melanoma = test system: SK-MEL-28 melanoma
HCC-2998 colon = test system: HCC-2998 colon
OVCAR-4 ovarian = test system: OVCAR-4 ovarian
TK-10 renal = test system: TK-10 renal
MOLT-4 leukemia = test system: MOLT-4 leukemia
MALME-3M melanoma = test system: MALME-3M melanoma
SW-620 colon = test system: SW-620 colon
PC-3 prostate = test system: PC-3 prostate
OVCAR-3 ovarian = test system: OVCAR-3 ovarian
K-562 leukemia = test system: K-562 leukemia

Work on `O=c1oc2ccccc2c(Cl)c1Cl` yielded a GI50 (MCF7 breast) of 2.83 µM, a TGI (MCF7 breast) of 10.6 µM and a GI50 (RXF 393 renal) of 1.95 µM. It also gave a TGI (RXF 393 renal) of 4.31 µM, a GI50 (A549 NSCLC) of 15.5 µM and a TGI (A549 NSCLC) of 32.2 µM. For the same molecule, the GI50 (SK-MEL-5 melanoma) was 4.94 µM, the TGI (SK-MEL-5 melanoma) was 16.9 µM and the GI50 (NCI-H23 lung) was 5.56 µM. It also gave a TGI (NCI-H23 lung) of 18.9 µM, a GI50 (EKVX NSCLC) of 11.2 µM and a TGI (EKVX NSCLC) of 27.1 µM. It also gave a GI50 (SF-539 CNS) of 4.07 µM, a TGI (SF-539 CNS) of 15.3 µM and a GI50 (NCI-H460 lung) of 3.21 µM. For the same molecule, the TGI (NCI-H460 lung) was 12.1 µM, the GI50 (UO-31 renal) was 1.83 µM and the TGI (UO-31 renal) was 4.73 µM. For the same molecule, the GI50 (HS 578T breast) was 2.69 µM, the TGI (HS 578T breast) was 9.71 µM and the GI50 (SF-268 CNS) was 3.91 µM. It also gave a TGI (SF-268 CNS) of 16.3 µM, a GI50 (HOP-92 NSCLC) of 5.71 µM and a TGI (HOP-92 NSCLC) of 18.6 µM. For the same molecule, the GI50 (SK-OV-3 ovarian) was 13.3 µM, the TGI (SK-OV-3 ovarian) was 87.3 µM and the GI50 (SF-295 CNS) was 11.7 µM. For the same molecule, the TGI (SF-295 CNS) was 28.4 µM, the GI50 (MDA-MB-435) was 3.32 µM and the TGI (MDA-MB-435) was 11.4 µM. It also gave a GI50 (HOP-62 NSCLC) of 3.49 µM, a TGI (HOP-62 NSCLC) of 14.2 µM and a GI50 (OVCAR-5 ovarian) of 14.7 µM. The TGI (OVCAR-5 ovarian) was 30.1 µM, the GI50 (ACHN renal) was 2.49 µM and the TGI (ACHN renal) was 5.92 µM. For the same molecule, the GI50 (DU-145 prostate) was 3.02 µM, the TGI (DU-145 prostate) was 12.1 µM and the GI50 (CAKI-1 renal) was 2.69 µM. For the same molecule, the TGI (CAKI-1 renal) was 8.97 µM, the GI50 (HCT-116 colon) was 3.49 µM and the TGI (HCT-116 colon) was 13.6 µM. The GI50 (BT-549 breast) was 2.63 µM, the TGI (BT-549 breast) was 9.33 µM and the GI50 (T-47D breast) was 2.38 µM. It also gave a TGI (T-47D breast) of 6.87 µM, a GI50 (UACC-257 melanoma) of 2.24 µM and a TGI (UACC-257 melanoma) of 5.39 µM. The GI50 (SNB-19 CNS) was 10.5 µM, the TGI (SNB-19 CNS) was 22.7 µM and the GI50 (U251 CNS) was 2.85 µM. It also gave a TGI (U251 CNS) of 8.86 µM, a GI50 (M14 melanoma) of 3.47 µM and a TGI (M14 melanoma) of 14.1 µM. It also gave a GI50 (SR leukemia) of 2.29 µM, a TGI (SR leukemia) of 65.8 µM and a GI50 (OVCAR-8 ovarian) of 4.23 µM. The TGI (OVCAR-8 ovarian) was 17.4 µM, the GI50 (SNB-75 CNS) was 2.85 µM and the TGI (SNB-75 CNS) was 12.9 µM. For the same molecule, the GI50 (UACC-62 melanoma) was 4.82 µM, the TGI (UACC-62 melanoma) was 18.1 µM and the GI50 (HCT-15 colon) was 2.24 µM. The TGI (HCT-15 colon) was 6.28 µM, the GI50 (HL-60(TB) leukemia) was 4.09 µM and the TGI (HL-60(TB) leukemia) was 34.3 µM. It also gave a GI50 (NCI-H226 lung) of 10 µM, a TGI (NCI-H226 lung) of 24.5 µM and a GI50 (COLO 205 colon) of 2.19 µM. For the same molecule, the TGI (COLO 205 colon) was 4.84 µM, the GI50 (RPMI-8226 leukemia) was 2.71 µM and the TGI (RPMI-8226 leukemia) was 8.66 µM. The GI50 (A498 renal) was 10.4 µM, the TGI (A498 renal) was 22.4 µM and the GI50 (SN12C renal) was 4.58 µM. For the same molecule, the TGI (SN12C renal) was 16.8 µM, the GI50 (HT29 colon) was 2.25 µM and the TGI (HT29 colon) was 4.85 µM. The GI50 (LOX IMVI melanoma) was 1.76 µM, the TGI (LOX IMVI melanoma) was 12.4 µM and the GI50 (NCI/ADR-RES ovarian) was 5.85 µM. For the same molecule, the TGI (NCI/ADR-RES ovarian) was 21.4 µM, the GI50 (KM12 colon) was 3.61 µM and the TGI (KM12 colon) was 13.7 µM. For the same molecule, the GI50 (786-0 renal) was 5.82 µM, the TGI (786-0 renal) was 18.7 µM and the GI50 (CCRF-CEM leukemia) was 0.595 µM. For the same molecule, the TGI (CCRF-CEM leukemia) was 30 µM, the GI50 (NCI-H522 lung) was 3.46 µM and the TGI (NCI-H522 lung) was 15.5 µM. The GI50 (MDA-MB-231 breast) was 2.48 µM, the TGI (MDA-MB-231 breast) was 6.2 µM and the GI50 (SK-MEL-28 melanoma) was 2.68 µM. The TGI (SK-MEL-28 melanoma) was 7.76 µM, the GI50 (HCC-2998 colon) was 9.86 µM and the TGI (HCC-2998 colon) was 21.8 µM. The GI50 (OVCAR-4 ovarian) was 6.76 µM, the TGI (OVCAR-4 ovarian) was 19.6 µM and the GI50 (TK-10 renal) was 1.88 µM. The TGI (TK-10 renal) was 3.7 µM, the GI50 (MOLT-4 leukemia) was 3.37 µM and the TGI (MOLT-4 leukemia) was greater than 100 µM. The GI50 (MALME-3M melanoma) was 2.23 µM, the TGI (MALME-3M melanoma) was 12.4 µM and the GI50 (SW-620 colon) was 1.51 µM. For the same molecule, the TGI (SW-620 colon) was 5.6 µM, the GI50 (PC-3 prostate) was 7.51 µM and the TGI (PC-3 prostate) was 24.5 µM. The GI50 (OVCAR-3 ovarian) was 1.94 µM, the TGI (OVCAR-3 ovarian) was 4.38 µM and the GI50 (K-562 leukemia) was 2.63 µM. It also gave a TGI (K-562 leukemia) greater than 100 µM.
